Experimental data: patent US7906624B2, “Binding peptidomimetics and uses of the same” (The Trustees of the University of Pennsylvania, priority 2004, dated 2011)

How the values were obtained:
[1] = ELISA on biotin-coated plate, bound protein detected with anti-streptavidin antibody-HRP; type: binding; details: 0-1.1 μg/well on biotin-coated plate
Experimental: (§1) FIG. 4, panels A and B show data from enzyme-linked immunosorbent assay (ELISA) analysis of recombinant proteins for biotin and Her2-Fc binding ability. Panel A: Streptavidin or ASA was immobilized on biotin-coated plate. Bound protein was detected using an anti-streptavidin antibody-HRP. Panel B: After immobilization of Streptavidin or ASA on biotin-coated plate, Her2-human Fc fusion was added to each plate and bound fusion protein was detected using anti-Her2 antibody and anti-mouse IgG-HRP. The amounts of Streptavidin or ASA fusion protein used in this experiment were: well 1: 0; 2: 0.11 ng; 3: 1.1 ng; 4: 11 ng; 5: 110 ng; 6: 1100 ng.
(§2) The binding of ASA to Biotin and Her2 was determined by a modified ELISA assay. ELISA was performed at room temperature (RT) or 4° C. Purified streptavidin or ASA (0-1.1 μg/well) was immobilized on the biotin-coated ELISA plate (Pierce) for 1 hr at 4° C. in PBS. […] The A450 nm value of the plates was determined using an ELISA reader. Bound streptavidin was detected by the same method using an anti-streptavidin-HRP in PBS (1; 500 dilution; 50 μL/well).
(§3) The ASA fusion protein was tested to determine if it would bind to biotin as well as Her2. […] Bound Her2-Fc was detected by the mouse anti-Her2 antibody (4D5) and the HRP-conjugated anti-mouse IgG antibody.

[2] = biological target: T1, Her2-human Fc fusion protein (Homo sapiens, UniProt P04626); test: ELISA for Her2-Fc binding of protein immobilized on biotin-coated plate; details: 0-1.1 μg/well immobilized on biotin-coated plate; Her2-Fc 50 ng/well
T1 construct: Her2-human Fc fusion protein that was composed of the ectodomain of Her2 and the Fc of human IgG; purchased Xcyte Therapeutic, Seattle, Wash
Experimental: as §1, §2, §3

[3] = tested on: T6-17 cells (Her2 transformed cells); test: MTT cell proliferation assay, T6-17 cells; type: cell-based
Experimental: (§4) FIG. 5, panels A and B show inhibition of cell proliferation by ASA. Effects of ASA treatment, or treatments with streptavidin and the peptide AHNP, on the proliferation of T6-17 (Her2 transformed cells, Panel A) or NR6 (control cells, Panel B) were shown; Cell proliferation was measured by the standard MTT assay performed on poly-HEMA plates (for T6-17) or regular tissue culture plates (for NR6).
(§5) T6-17 and NR6 cells were grown in DMEM medium supplemented with 10% heat inactivated fetal calf serum, L-glutamine (2 mM), penicillin (100 U/ml) and streptomycin (100 μg/ml) at 37° C. in a humidified 5% CO2 atmosphere.
(§6) The MTT assay has been used modified method for measuring cell growth. T6-17 cells or NR6 cells were seeded in poly 2-hydroxyethyl methacrylate coated 96 well plates (50 μl/well, 800 cells/well or 1200 cells/well). Then the Streptavidin or ASA protein or the AHNP peptide were (50 μl/well, 0.69 μM or 6.9 μM) and incubate at 37° C. in a humidified 5% CO2 atmosphere for 48 hr. A total of 25 μl of MTT solution (5 mg/ml in PBS) was added to each well, and after 2 hr of incubation at 37° C., 100 μl of the extraction-buffer (20% w/v SDS, 50% N,N-dimethyl formamide, pH 4.7) were added. After an overnight incubation at 37° C., the optical density at […] was measured using an ELISA reader.

[4] = tested on: NR6 cells (control cells); test: MTT cell proliferation assay, NR6 control cells; type: cell-based; details: NR6 control cell line
Experimental: as §4, §5, §6

[5] = tested on: T6-17 cells injected subcutaneously into nude mice; test: T6-17 tumor growth in nude mice; type: in vivo; details: for reduction of tumor size: day 14
Experimental: 1 million of T6-17 cells were injected subcutaneously into nude mice to induce the tumor growth. Panel A. Treatment of ASA started from day 0. Panel B. Treatment started on day 2 after tumor were palpable. NCR homozygous athymic (nude) mice (six to eight weeks-old) were purchased from the National Cancer Institute. To induce tumor, 10^6 transformed T6-17 cells were suspended in 100 μl of PBS and injected subcutaneously into the flank of each animal. Animals were maintained in accordance with guidelines of the Institutional Animal Care and Use Committee (IACUC) of the University of […]. Tumor volume was calculated by the formula: π*length*width*Height/6. T6-17 cells were transformed by the over-expression of human Her2/neu […]. […] In one experiment, animals were treated with either streptavidin or ASA (11.25 mg/kg/week). Treatment stared from day 0 and was provided to animals by three subcutaneous injections each week. […] Treatment was also provided to mice by a different administration route in a second experiment, in which intraperitoneal treatment started day 2 after palpable tumor appeared ( 2 cubic mm) (FIG. 6, Panel B). ASA was given at the dose of 15 mg/kg/week, divided into three injections.

[6] = in vivo; cited from earlier work

| Substance | binding to biotin (ELISA) [1] | binding to Her2-Fc fusion (ELISA) [2] | inhibition of cell proliferation ([3]; T6-17 cells, two different concentrations (0.69 μM or 6.9 μM), 48 hr, MTT) | molar concentration of ASA relative to the AHNP peptide necessary to achieve 50% cell growth inhibition in vitro ([3]; in vitro, relative to AHNP peptide) | inhibitory effect on cell proliferation [4] | appearance of palpable tumor prevented until ([5]; 11.25 mg/kg/week, subcutaneous, from day 0) | molar excess of AHNP with comparable activity in reducing tumor growth in vivo ([5]; ASA compared with AHNP) | reduction of tumor size ([5]; 11.25 mg/kg/week, three subcutaneous injections each week, from day 0) | reduction of tumor size ([5]; intraperitoneal, 15 mg/kg/week in three injections, from day 2 after palpable tumor, vs vehicle control) | serum half-life [6] |
| --- | --- | --- | --- | --- | --- | --- | --- | --- | --- | --- |
| ASA: Recombinant fusion of AHNP peptide, 11 amino acid linker GGGGSRSNSSS, streptavidin core and C-terminal NSSS linker plus His-tag; forms tetramer | bound to biotin in a dose-dependent manner | able to bind to the Her2-Fc fusion in a dose-dependent manner | 20-50% | about 10 times | Inhibitory effects were not observed | 7 days | ~30 fold | 62% | about 47.6% | – |
| streptavidin: Tetrameric biotin-binding protein produced by Streptomyces avidinii; recombinant core used as control [reference compound] | bound to biotin in a dose-dependent manner | didn't bind to the Her2-human Fc fusion protein even at the highest concentration | – | – | – | – | – | – | – | about 12 hours |
